Laboratory results taken from ChEMBL document CHEMBL6083295, “Natural Products Driven Medicinal Chemistry” (J Med Chem, 2024).
Values after ≈ are worked out from the molar mass of the structure shown. Values belong to the molecule of their own block, whether it stands above or below them.

Tests used:
HCT-116 = assay: Antiproliferative activity against human HCT-116 cells
Staphylococcus sp. = assay: Antibacterial activity against Staphylococcus species; type: functional
Acinetobacter = assay: Antibacterial activity against Acinetobacter; type: functional
Staphylococcus aureus [1] = assay: Potentiation of vancomycin-induced antibiofilm activity against Staphylococcus aureus assessed as disruption of preformed biofilm by measuring fold increase in vancomycin activity; type: functional
Staphylococcus aureus [2] = assay: Potentiation of gentamicin-induced antibiofilm activity against Staphylococcus aureus assessed as disruption of preformed biofilm by measuring fold increase in gentamicin activity; type: functional
B16 = assay: Cytotoxicity against mouse B16 cells; type: functional, cell-based
MDA-MB-231 [3] = assay: Antitumor activity against human MDA-MB-231 cells xenografted in triple-negative breast cancer xenograft model assessed as tumor growth inhibition at 15 mg/kg relative to control; type: functional; details: read-out: TGI
MDA-MB-231 [4] = assay: Antitumor activity against human MDA-MB-231 cells xenografted in triple-negative breast cancer xenograft model assessed as tumor growth inhibition at 30 mg/kg relative to control; type: functional; details: read-out: TGI

Compound: COc1ccc2cc(NC(=O)C3=NO[C@H]4[C@H](O)C=C[C@@H](Cl)[C@@]4(O)C3)c(=O)oc2c1OC [TRICHODERMAMIDE B]
- IC50 (HCT-116): 120 nM

- MIC (Staphylococcus sp.): 0.06 µg/mL (≈ 0.0757 µM)
- MIC (Acinetobacter): 0.06 µg/mL (≈ 0.0757 µM)
Compound: C#CC[C@H](NC(=O)c1ccc(NC(=O)c2ccc(C#N)cc2)cc1)C(=O)Nc1ccc(C(=O)Nc2ccc(C(=O)Nc3ccc(C(=O)O)cc3)c(O)c2OC(C)C)cc1

Compound: CC(=O)[C@H](C)C[C@@H](C)C[C@H](C)C(=O)C1=C(O)/C(=C/c2ccccc2)NC1=O
- fold change (FC) (Staphylococcus aureus [1]): 31
- fold change (FC) (Staphylococcus aureus [2]): 115

Compound: COC[C@@H](OC)C(=O)O[C@H](CC[C@H](C)[C@H](C[C@@H]1OC(=O)C[C@@H](O)C/C=C/C(=O)[C@H](C)[C@H](OC)c2coc(n2)-c2coc(n2)-c2coc(n2)/C=C\C[C@H](OC)[C@H]1C)OC)[C@H](C)[C@H](OC(C)=O)[C@H](C)/C=C/N(C)C=O
- IC50 (B16): 0.5 nM

Compound: CC(C)C[C@@H](CO)N1CCc2c(oc3c2C(=O)C(=O)c2ccccc2-3)C1
- inhibition in vivo at 15 mg/kg (MDA-MB-231 [3]): 42.2%
- inhibition in vivo at 30 mg/kg (MDA-MB-231 [4]): 60.4%
